# Legend:
# FOXO3a = FOXO3a immunofluorescence localization (cytoplasm-to-nucleus translocation) assay; format: cell-based
# Protocol: Tissue culture cells are plated in 96 well culture plates in culture medium with 10% (full) serum. 24 hours later, cells are dosed with 1 uM of indicated drug for 6 hours at which point cells are directly fixed in 4% formaldehyde in protein-free phosphate-buffered saline (PBS) for 20 min at 37° C. Plates are washed and then cells permeabilized by a 10 min incubation in ice cold methanol. Plates are washed to remove methanol and incubated with anti-FOXO3a antibody (Cell Signaling Technology, catalog #2497, clone 75D8) in antibody dilution buffer (1% BSA, 0.3% Triton X-100 in PBS) at a 1:20 dilution of primary antibody, along with Hoechst nuclear stain (1:10,000 dilution). Cells are incubated overnight at 4° C. Plates are washed to remove primary antibody and then incubated with secondary antibody, goat anti-rabbit conjugated to Alexa-flour 488 dye (Invitrogen) for 1 hr at ambient temperature in the dark. Plates are washed with PBS, sealed with black plate sealer and analyzed on the Cellomics HCS ArrayScan Imager using the Cytoplasm-to-Nucleus translocation bioapplication (Thermo Scientific).
# breast cancer cell lines = settings: panel of breast cancer cell lines; Hoeflich et al 2009; cited from earlier work
# [1] = system: PTEN null breast cancer cell lines; test: Cell line sensitivity to AKT inhibitor (IC50); format: cell-based
# [2] = PI3K/AKT inhibitor resistant cell lines, FIG. 8
# [3] = cell lines sensitive to PI3K/AKT inhibitors, FIG. 7
# [4] = resistant lines with PI3K/AKT activation (MB-468 with PTEN loss), FIG. 8
"IC50 ([1]; resistant cell lines with PTEN null status, FIG. 5) [µM]",SMILES,"FOXO3a localization upon treatment (FOXO3a; breast cancer cell lines, FIGS. 11A-C)",activity at the concentration used (breast cancer cell lines),FOXO3a localization upon treatment (FOXO3a; [2]),"FOXO3a localization upon treatment (FOXO3a; cell lines resistant to GDC-0941, FIG. 10B)","FOXO3a localization upon treatment (FOXO3a; cell lines sensitive to GDC-0941, FIG. 10A)",FOXO3a localization upon treatment (FOXO3a; [3]),FOXO3a localization upon treatment (FOXO3a; [4]),"FOXO3a localization post-treatment (FOXO3a; BT474 cells, FIG. 2B)","sensitivity of cell line to AKT inhibitor ([1]; MDA-MB-468, cell line with PTEN loss)"
–,"O=C(NOC[C@H](O)CO)c1ccc(F)c(F)c1Nc1ccc(I)cc1F [PD901, reference compound]",unchanged,active,–,–,–,–,–,–,–
–,"CS(=O)(=O)N1CCN(Cc2cc3nc(-c4cccc5[nH]ncc45)nc(N4CCOCC4)c3s2)CC1 [GDC-0941, 2-(1H-Indazol-4-yl)-6-(4-methanesulfonyl-piperazin-1-ylmethyl)-4-morpholin-4-yl-thieno[3,2-d]pyrimidine]",–,–,remains nuclear,remains nuclear,relocalizes from cytoplasm to nucleus,translocated from cytoplasm to nucleus,more complete relocalization to nucleus,–,–
> 20,"CC(C)NC[C@@H](C(=O)N1CCN(c2ncnc3c2[C@H](C)C[C@H]3O)CC1)c1ccc(Cl)cc1 [GDC-0068, (S)-2-(4-chlorophenyl)-1-(4-((5R,7R)-7-hydroxy-5-methyl-6,7-dihydro-5H-cyclopenta[d]pyrimidin-4-yl)piperazin-1-yl)-3-(isopropylamino)propan-1-one]",–,–,remains nuclear,–,–,translocated from cytoplasm to nucleus,more complete relocalization to nucleus,translocated to the nucleus,resistant

# — patent US20130059859A1, “PREDICTIVE BIOMARKERS FOR PI3K/AKT KINASE PATHWAY INHIBITOR EFFICACY” (GENENTECH, INC., priority 2010, published 2013)
